# Assay results from patent publication US20250171438A1 (Agios Pharmaceuticals, Inc., priority 2022, published 2025).
# Target: T1, human PAH with the R408W mutation (Homo sapiens, UniProt P00439, R408W)
# T1 construct: expressed in transfected cells
# T1 sequence (P00439 1-452 R408W): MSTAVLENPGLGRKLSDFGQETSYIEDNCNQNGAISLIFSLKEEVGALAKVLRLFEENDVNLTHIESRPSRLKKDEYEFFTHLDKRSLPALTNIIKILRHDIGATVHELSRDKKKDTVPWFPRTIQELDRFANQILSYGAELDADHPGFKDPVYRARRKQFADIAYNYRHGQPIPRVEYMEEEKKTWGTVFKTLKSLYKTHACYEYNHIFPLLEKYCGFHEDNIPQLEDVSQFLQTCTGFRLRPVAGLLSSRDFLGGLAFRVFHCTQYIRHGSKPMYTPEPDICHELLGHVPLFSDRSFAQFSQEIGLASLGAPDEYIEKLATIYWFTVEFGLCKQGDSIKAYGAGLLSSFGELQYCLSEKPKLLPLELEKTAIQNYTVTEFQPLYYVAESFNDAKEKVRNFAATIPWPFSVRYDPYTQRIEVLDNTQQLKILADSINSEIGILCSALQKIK
# Test: Cell Based Phenylalanine Flux Assay
# Conditions: A375 cells expressing human R408W PAH; 24 hrs compound incubation; 13C-Tyrosine by LC-MS; average where tested multiple times; read-out: AC50
row,AC50 [nM],SMILES
1,< 500,CC(C)(O)c1cccc2c(C(=O)N3CCc4[nH]cnc4[C@H]3c3nc4ccccc4s3)cnn12 [Example 1481]
2,1000 to 5000,"CC(C)(O)c1cccc2c(C(=O)N3CCc4[nH]cnc4[C@@H]3c3nc4ccccc4s3)cnn12 [Example 1482, (R)-(4-(benzo[d]thiazol-2-yl)-6,7-dihydro-1H-imidazo[4,5-c]pyridin-5(4H)-yl)(7-(2-hydroxypropan-2-yl)pyrazolo[1,5-a]pyridin-3-yl)methanone]"
3,500 to 1000,"CC(C)(O)c1ncc(C(=O)N2CCc3[nH]cnc3[C@H]2c2nc3c(F)cccc3s2)o1 [Example 1483, (S)-(4-(4-fluorobenzo[d]thiazol-2-yl)-6,7-dihydro-1H-imidazo[4,5-c]pyridin-5(4H)-yl)(2-(2-hydroxypropan-2-yl)oxazol-5-yl)methanone]"
4,1000 to 5000,"CC(C)(O)c1ncc(C(=O)N2CCc3[nH]cnc3[C@@H]2c2nc3c(F)cccc3s2)o1 [Example 1484, (R)-(4-(4-fluorobenzo[d]thiazol-2-yl)-6,7-dihydro-1H-imidazo[4,5-c]pyridin-5(4H)-yl)(2-(2-hydroxypropan-2-yl)oxazol-5-yl)methanone]"
5,500 to 1000,"CC(C)(F)c1ncc(C(=O)N2CCc3[nH]cnc3[C@@H]2c2nc3c(F)cccc3s2)s1 [Example 1485, (R)-(4-(4-fluorobenzo[d]thiazol-2-yl)-6,7-dihydro-1H-imidazo[4,5-c]pyridin-5(4H)-yl)(2-(2-fluoropropan-2-yl)thiazol-5-yl)methanone]"
6,< 500,"CC(C)(F)c1ncc(C(=O)N2CCc3[nH]cnc3[C@H]2c2nc3c(F)cccc3s2)s1 [Example 1486, (S)-(4-(4-fluorobenzo[d]thiazol-2-yl)-6,7-dihydro-1H-imidazo[4,5-c]pyridin-5(4H)-yl)(2-(2-fluoropropan-2-yl)thiazol-5-yl)methanone]"
7,< 500,"CC(C)(F)c1ncc(C(=O)N2CCc3[nH]cnc3[C@H]2c2nc3c(F)cccc3s2)o1 [Example 1487, (S)-(4-(4-fluorobenzo[d]thiazol-2-yl)-6,7-dihydro-1H-imidazo[4,5-c]pyridin-5(4H)-yl)(2-(2-fluoropropan-2-yl)oxazol-5-yl)methanone]"
8,500 to 1000,"CC(C)(F)c1ncc(C(=O)N2CCc3[nH]cnc3[C@@H]2c2nc3c(F)cccc3s2)o1 [Example 1488, (R)-(4-(4-fluorobenzo[d]thiazol-2-yl)-6,7-dihydro-1H-imidazo[4,5-c]pyridin-5(4H)-yl)(2-(2-fluoropropan-2-yl)oxazol-5-yl)methanone]"
9,500 to 1000,"CC(C)(F)c1ccc2c(C(=O)N3CCc4[nH]cnc4[C@H]3c3nc4c(F)cccc4s3)cnn2c1 [Example 1489, (S)-(4-(4-fluorobenzo[d]thiazol-2-yl)-6,7-dihydro-1H-imidazo[4,5-c]pyridin-5(4H)-yl)(6-(2-fluoropropan-2-yl)pyrazolo[1,5-a]pyridin-3-yl)methanone]"
10,1000 to 5000,"CC(C)(F)c1ccc2c(C(=O)N3CCc4[nH]cnc4[C@@H]3c3nc4c(F)cccc4s3)cnn2c1 [Example 1490, (R)-(4-(4-fluorobenzo[d]thiazol-2-yl)-6,7-dihydro-1H-imidazo[4,5-c]pyridin-5(4H)-yl)(6-(2-fluoropropan-2-yl)pyrazolo[1,5-a]pyridin-3-yl)methanone]"
11,< 500,Fc1ccc(-c2nnc(N3CCc4[nH]cnc4[C@H]3c3nc4ccccc4s3)o2)cc1 [Example 1491]
12,500 to 1000,"Fc1ccc(-c2nnc(N3CCc4[nH]cnc4[C@@H]3c3nc4ccccc4s3)o2)cc1 [Example 1492, (R)-2-(4-(benzo[d]thiazol-2-yl)-6,7-dihydro-1H-imidazo[4,5-c]pyridin-5(4H)-yl)-5-(4-fluorophenyl)-1,3,4-oxadiazole]"

# Continued, compound first:
row,SMILES,AC50 [nM]
1,"Cc1cnc(CC(=O)N2CCc3[nH]cnc3[C@@H]2c2nc3ccccc3s2)s1 [Example 1458, (R)-1-(4-(benzo[d]thiazol-2-yl)-6,7-dihydro-1H-imidazo[4,5-c]pyridin-5(4H)-yl)-2-(5-methylthiazol-2-yl)ethanone]",1000 to 5000
2,O=C(Cc1ncc(C2CC2)s1)N1CCc2[nH]cnc2[C@H]1c1nc2ccccc2s1 [Example 1459],500 to 1000
3,"O=C(Cc1ncc(C2CC2)s1)N1CCc2[nH]cnc2[C@@H]1c1nc2ccccc2s1 [Example 1460, (R)-1-(4-(benzo[d]thiazol-2-yl)-6,7-dihydro-1H-imidazo[4,5-c]pyridin-5(4H)-yl)-2-(5-cyclopropylthiazol-2-yl)ethanone]",1000 to 5000
4,"Cn1cc(-c2nnc(C(=O)N3CCc4[nH]cnc4[C@@H]3c3nc4ccccc4s3)o2)cn1 [Example 1461, (R)-(4-(benzo[d]thiazol-2-yl)-6,7-dihydro-1H-imidazo[4,5-c]pyridin-5(4H)-yl)(5-(1-methyl-1H-pyrazol-4-yl)-1,3,4-oxadiazol-2-yl)methanone]",1000 to 5000
5,Cn1cc(-c2nnc(C(=O)N3CCc4[nH]cnc4[C@H]3c3nc4ccccc4s3)o2)cn1 [Example 1462],1000 to 5000
6,CC(C)(F)c1ncc(C(=O)N2CCc3[nH]cnc3[C@H]2c2nc3ccccc3s2)s1 [Example 1463],< 500
7,"CC(C)(F)c1ncc(C(=O)N2CCc3[nH]cnc3[C@@H]2c2nc3ccccc3s2)s1 [Example 1464, (R)-(4-(benzo[d]thiazol-2-yl)-6,7-dihydro-1H-imidazo[4,5-c]pyridin-5(4H)-yl)(2-(2-fluoropropan-2-yl)thiazol-5-yl)methanone]",1000 to 5000
8,"Cc1nnc(C(=O)N2CCc3[nH]cnc3[C@H]2c2nc3c(F)cccc3s2)o1 [Example 1465, (S)-(4-(4-fluorobenzo[d]thiazol-2-yl)-6,7-dihydro-1H-imidazo[4,5-c]pyridin-5(4H)-yl)(5-methyl-1,3,4-oxadiazol-2-yl)methanone]",500 to 1000
9,"Cc1nnc(C(=O)N2CCc3[nH]cnc3[C@@H]2c2nc3c(F)cccc3s2)o1 [Example 1466, (R)-(4-(4-fluorobenzo[d]thiazol-2-yl)-6,7-dihydro-1H-imidazo[4,5-c]pyridin-5(4H)-yl)(5-methyl-1,3,4-oxadiazol-2-yl)methanone]",1000 to 5000
10,Cc1nc(C(C)(C)O)oc1C(=O)N1CCc2[nH]cnc2[C@H]1c1nc2ccccc2s1 [Example 1469],< 500
11,"Cc1nc(C(C)(C)O)oc1C(=O)N1CCc2[nH]cnc2[C@@H]1c1nc2ccccc2s1 [Example 1470, (R)-(4-(benzo[d]thiazol-2-yl)-6,7-dihydro-1H-imidazo[4,5-c]pyridin-5(4H)-yl)(2-(2-hydroxypropan-2-yl)-4-methyloxazol-5-yl)methanone]",> 5000
12,"Cc1nc(C(C)(C)O)oc1C(=O)N1CCc2[nH]cnc2[C@H]1c1nc2c(F)cccc2s1 [Example 1471, (S)-(4-(4-fluorobenzo[d]thiazol-2-yl)-6,7-dihydro-1H-imidazo[4,5-c]pyridin-5(4H)-yl)(2-(2-hydroxypropan-2-yl)-4-methyloxazol-5-yl)methanone]",< 500
13,"Cc1nc(C(C)(C)O)oc1C(=O)N1CCc2[nH]cnc2[C@@H]1c1nc2c(F)cccc2s1 [Example 1472, (R)-(4-(4-fluorobenzo[d]thiazol-2-yl)-6,7-dihydro-1H-imidazo[4,5-c]pyridin-5(4H)-yl)(2-(2-hydroxypropan-2-yl)-4-methyloxazol-5-yl)methanone]",1000 to 5000
14,CC(C)(O)c1ccc2c(C(=O)N3CCc4[nH]cnc4[C@H]3c3nc4ccccc4s3)cnn2c1 [Example 1473],< 500
15,"CC(C)(O)c1ccc2c(C(=O)N3CCc4[nH]cnc4[C@@H]3c3nc4ccccc4s3)cnn2c1 [Example 1474, (R)-(4-(benzo[d]thiazol-2-yl)-6,7-dihydro-1H-imidazo[4,5-c]pyridin-5(4H)-yl)(6-(2-hydroxypropan-2-yl)pyrazolo[1,5-a]pyridin-3-yl)methanone]",1000 to 5000
16,CC(C)(O)c1c(Br)ccc2c(C(=O)N3CCc4[nH]cnc4[C@H]3c3nc4ccccc4s3)cnn12 [Example 1475],< 500
17,"CC(C)(O)c1c(Br)ccc2c(C(=O)N3CCc4[nH]cnc4[C@@H]3c3nc4ccccc4s3)cnn12 [Example 1476, (R)-(4-(benzo[d]thiazol-2-yl)-6,7-dihydro-1H-imidazo[4,5-c]pyridin-5(4H)-yl)(6-bromo-7-(2-hydroxypropan-2-yl)pyrazolo[1,5-a]pyridin-3-yl)methanone]",1000 to 5000
18,"CC(C)(O)c1ncc(C(=O)N2CCc3[nH]cnc3[C@H]2c2nc3c(F)cccc3s2)s1 [Example 1477, (S)-(4-(4-fluorobenzo[d]thiazol-2-yl)-6,7-dihydro-1H-imidazo[4,5-c]pyridin-5(4H)-yl)(2-(2-hydroxypropan-2-yl)thiazol-5-yl)methanone]",< 500
19,"CC(C)(O)c1ncc(C(=O)N2CCc3[nH]cnc3[C@@H]2c2nc3c(F)cccc3s2)s1 [Example 1478, (R)-(4-(4-fluorobenzo[d]thiazol-2-yl)-6,7-dihydro-1H-imidazo[4,5-c]pyridin-5(4H)-yl)(2-(2-hydroxypropan-2-yl)thiazol-5-yl)methanone]",1000 to 5000
20,CC(C)(F)c1ccc2c(C(=O)N3CCc4[nH]cnc4[C@H]3c3nc4ccccc4s3)cnn2c1 [Example 1479],< 500
21,"CC(C)(F)c1ccc2c(C(=O)N3CCc4[nH]cnc4[C@@H]3c3nc4ccccc4s3)cnn2c1 [Example 1480, (R)-(4-(benzo[d]thiazol-2-yl)-6,7-dihydro-1H-imidazo[4,5-c]pyridin-5(4H)-yl)(6-(2-fluoropropan-2-yl)pyrazolo[1,5-a]pyridin-3-yl)methanone]",1000 to 5000
